{
  "source": "patent US20200223826A1",
  "about": "“Glucose-6-Phosphate Dehydrogenase (G6PD)-Modulating Agents And Methods Of Treating G6PD Deficiency” (The Board of Trustees of the Leland Stanford Junior …, priority 2017, published 2020)",
  "key": {"[1]": {"tested_on": "fibroblasts with the Mediterranean variant", "assay": "Viability of fibroblasts, with and without siRNA knockdown", "type": "cell-based, human", "method": "Cell viability was measured using a Cell-Counting Kit-8 (CCK-8, Dojindo), utilizing WST-8 [2-(2-methoxy-4-nitrophenyl)-3-(4-nitrophenyl)-5-(2,4-disulfophenyl)-2H-tetrazolium monosodium salt, according to the manufacturer's instructions. Cells were subjected to serum starvation for 48 hours before measurement. Cells in 100 μL of medium per well were treated with 10 μL of CCK-8 solution and incubated for 2 hours at 37° C. The absorbance was read at 450 nm. Viability of lymphocytes was measured by staining with a 0.4% solution of trypan blue in buffered isotonic salt solution (pH 7.2). The viability was calculated as the number of viable cells (non-stained by the dye) divided by the total number of cells within the grids on the hemacytometer. Cells were treated with 1 μM of the compound 24 hours before the measurement.\nEndogenous G6PD was knocked down in each cell line as follows; 2 pmol of siRNA G6PD (Santa Cruz Biotechnology) and 0.5 μg lipofectamine (Invitrogen) were diluted in 10 μL of Opti-MEM medium respectively and incubated for 5 minutes. The diluted siRNA was combined with diluted lipofectamine, which was followed by additional incubation for 20 minutes prior to the addition to cells in a 96-well plate."}, "[2]": {"biological_target": "aldehyde dehydrogenase 3A1 (ALDH3A1) (Homo sapiens, UniProt P30838)", "sequence (P30838 whole entry, species assumed)": "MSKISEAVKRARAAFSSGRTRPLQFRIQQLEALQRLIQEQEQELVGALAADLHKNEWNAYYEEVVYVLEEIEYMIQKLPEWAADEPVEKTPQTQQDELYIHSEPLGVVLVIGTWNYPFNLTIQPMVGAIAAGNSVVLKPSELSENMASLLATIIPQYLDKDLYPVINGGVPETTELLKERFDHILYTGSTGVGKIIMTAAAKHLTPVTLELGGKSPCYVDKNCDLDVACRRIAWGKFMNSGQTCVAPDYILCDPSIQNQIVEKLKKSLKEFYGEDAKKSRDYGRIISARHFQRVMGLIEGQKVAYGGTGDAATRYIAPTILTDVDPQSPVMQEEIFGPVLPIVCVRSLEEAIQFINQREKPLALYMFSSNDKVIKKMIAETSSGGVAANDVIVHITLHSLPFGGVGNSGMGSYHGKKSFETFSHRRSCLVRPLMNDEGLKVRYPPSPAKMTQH", "assay": "Selectivity: dimerization or activity of other NAD/NADP+-dependent enzymes", "type": "biochemical"}, "[3]": {"biological_target": "aldehyde dehydrogenase 2 (ALDH2) (Homo sapiens, UniProt P05091)", "sequence (P05091 18-517, species assumed)": "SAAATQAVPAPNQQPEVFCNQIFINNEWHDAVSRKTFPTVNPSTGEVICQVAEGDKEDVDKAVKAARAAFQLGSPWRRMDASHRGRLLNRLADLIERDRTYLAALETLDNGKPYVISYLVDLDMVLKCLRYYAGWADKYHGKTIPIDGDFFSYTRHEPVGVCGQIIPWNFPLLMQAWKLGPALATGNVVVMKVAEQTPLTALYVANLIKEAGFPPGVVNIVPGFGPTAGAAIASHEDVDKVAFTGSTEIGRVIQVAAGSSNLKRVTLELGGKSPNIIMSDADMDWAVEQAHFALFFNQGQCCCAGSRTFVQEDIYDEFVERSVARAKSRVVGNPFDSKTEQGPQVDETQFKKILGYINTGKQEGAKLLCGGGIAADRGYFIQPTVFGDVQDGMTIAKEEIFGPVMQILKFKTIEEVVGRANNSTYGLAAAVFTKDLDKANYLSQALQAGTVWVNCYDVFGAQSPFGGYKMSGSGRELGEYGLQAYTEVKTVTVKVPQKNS", "assay": "Selectivity: dimerization or activity of other NAD/NADP+-dependent enzymes", "type": "biochemical"}, "[4]": {"biological_target": "T1, G6PD in fibroblast cells carrying Mediterranean variant (Homo sapiens, UniProt P11413, S188F)", "T1 construct": "host or cells: subject-derived fibroblast cell line", "T1 sequence (P11413 2-515 S188F limits assumed)": "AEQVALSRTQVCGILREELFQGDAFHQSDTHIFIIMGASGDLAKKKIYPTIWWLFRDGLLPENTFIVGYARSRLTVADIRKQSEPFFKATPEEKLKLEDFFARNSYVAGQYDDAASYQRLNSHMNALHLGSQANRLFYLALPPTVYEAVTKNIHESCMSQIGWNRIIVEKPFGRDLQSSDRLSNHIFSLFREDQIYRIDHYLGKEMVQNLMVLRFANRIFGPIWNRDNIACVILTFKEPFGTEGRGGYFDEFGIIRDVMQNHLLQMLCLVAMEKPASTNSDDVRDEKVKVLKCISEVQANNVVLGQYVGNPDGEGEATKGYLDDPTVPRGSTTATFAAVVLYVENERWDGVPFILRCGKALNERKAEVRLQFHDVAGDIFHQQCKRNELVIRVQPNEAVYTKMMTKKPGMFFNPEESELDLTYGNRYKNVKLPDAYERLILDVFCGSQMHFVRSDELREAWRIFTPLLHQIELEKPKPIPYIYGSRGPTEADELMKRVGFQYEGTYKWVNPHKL", "assay": "Cycloheximide chase in fibroblasts", "type": "cell-based", "conditions": "cycloheximide treatment", "method": "Lymphocytes derived from a normal subject (HG 00866) and a G6PD-deficient subject carrying Canton variant in G6PD (HG 02367) were purchased from Coriell Institute and cultured in RPMI 1640 supplemented with 15% fetal bovine serum (FBS), 100 U/ml penicillin, and 100 μg/ml streptomycin. An SH-SY5Y neuroblastoma cell line was cultured in Dulbecco's Modification of Eagle's Medium/Ham's F-12 50/50 Mix supplemented with 10% FBS, 100 U/ml penicillin, and 100 μg/ml streptomycin. A G6PD-deficient subject-derived fibroblast cell line carrying Mediterranean variant and normal fibroblast cell line as control were purchased from Coriell Institute (GM 01152) and ThermoFisher Scientific (C0135C), respectively, and cultured in minimum essential medium supplemented with 15% FBS, 100 U/ml penicillin, and 100 μg/ml streptomycin. All the cell lines were maintained at 37° C. in a humidified incubator with an atmosphere of 5% of CO2 and 95% air.\n(§1) 50,000 cells (SH-SH5Y cells or fibroblast cells) or 100,000 cells (lymphocytes) were seeded in a 12-well plate and incubated overnight. The cells were subjected to serum starvation (50-75%) for 48 hours and treated with 50 μg/ml of cycloheximide at different time points (0-48 hours). The cells were treated with the compound (1 μM) for 48 hours together with cycloheximide. […]"}, "[5]": {"biological_target": "T2, Canton G6PD in SH-SY5Y cells (Homo sapiens, UniProt P11413, R459L)", "T2 construct": "expressed in transfected cells; host or cells: SH-SY5Y neuroblastoma cells", "T2 sequence (P11413 whole entry R459L)": "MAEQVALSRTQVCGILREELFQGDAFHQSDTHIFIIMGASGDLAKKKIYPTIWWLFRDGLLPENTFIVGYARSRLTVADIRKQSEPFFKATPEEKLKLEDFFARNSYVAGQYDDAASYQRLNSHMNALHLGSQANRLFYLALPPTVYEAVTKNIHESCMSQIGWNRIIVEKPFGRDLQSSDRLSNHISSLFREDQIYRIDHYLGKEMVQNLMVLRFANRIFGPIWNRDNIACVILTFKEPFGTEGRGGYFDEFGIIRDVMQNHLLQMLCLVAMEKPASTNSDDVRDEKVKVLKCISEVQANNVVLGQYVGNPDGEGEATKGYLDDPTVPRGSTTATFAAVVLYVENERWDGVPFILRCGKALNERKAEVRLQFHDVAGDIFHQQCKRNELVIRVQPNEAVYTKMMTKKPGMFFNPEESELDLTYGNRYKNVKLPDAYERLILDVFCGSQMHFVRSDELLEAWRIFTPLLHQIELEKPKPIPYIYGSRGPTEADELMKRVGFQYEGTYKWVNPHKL", "assay": "Stability of Canton G6PD in SH-SY5Y cells", "type": "cell-based", "method": "Prior to the cellular-based assays using SH-SH5Y cells, duration of overexpression of WT G6PD and Canton variant was examined by transfecting the cells seeded in a 12-well plate. The genes encoding human WT G6PD and Canton variant were first PCR-amplified, which was then inserted into pcDNA 3.1/myc-His C (ThermoFisher Scientific) using HindIII and XhoI. 0.5 μg of cDNA and 1.5 μg of lipofectamine (Invitrogen) were diluted in 50 μL of Opti-MEM medium respectively and incubated for 5 minutes. The diluted DNA was combined with diluted lipofectamine, which was followed by incubation for 20 minutes prior to the addition to cells.\nThe transfected cells were collected at different time points (up to 72 hours) and the overexpressed G6PD levels were examined by Western blot. The transfection was carried out in serum-starved cells. Once the duration of expression was confirmed, other cellular-based assays were performed.\nas §1"}, "Canton G6PD": {"biological_target": "T3, Canton G6PD (Homo sapiens, UniProt P11413, R459L)", "T3 construct": "His (pET-28a) (N, cleaved yes); made in house; host or cells: E. coli C43 (DE3)", "T3 sequence (P11413 whole entry R459L)": "as above", "assay": "Canton G6PD enzyme activity, diaphorase-coupled assay", "type": "biochemical", "method": "Enzyme activity was measured by monitoring NADPH production, which was coupled with diaphorase converting resazurin to fluorescent resorufin (excitation at 565 nm and emission at 590 nm); fluorescent signal was thus proportional to G6PD activity. Assays were performed at 25° C. and run for 5 minutes in buffer containing 50 mM Tris (pH 7.4), 0.5 mM EDTA, 3.3 mM MgCl2, 1 U/ml diaphorase, 0.1 mM resazurin. 10 ng of recombinant enzymes or 10 μg of cell lysates was used for the assay with 10 μM NADP^+ (Sigma) as cofactor and 100 μM G6P (Sigma) as substrate. Steady-state kinetic parameters were obtained by varying concentrations of NADP^+ (0-10 μM) with a constant concentration of G6P (100 μM) and similarly for G6P (0-100 μM) with a constant concentration of NADP^+ (10 μM) with 10 ng of recombinant enzymes. Data analysis was performed using GraphPad Prism software v.6 (GraphPad Software, La Jolla, Calif. USA). Kinetic parameters were obtained by fitting the data to the Michaelis-Menten equation.\nThe diaphorase-coupled enzyme assay as described above was used to screen a library of compounds for small molecule activators. The compounds were added to Canton G6PD enzyme reaction mixture at a final concentration of 16.67 μM using Caliper Life Sciences Staccato system with a Twister II robot and a Sciclone ALH3000 (Caliper Life Sciences, Alameda, Calif. USA) integrated with a V&P Scientific pin tool, which was followed by incubation for 3 hours. Addition of G6P then initiated the reaction, which was run for 2.5 minutes. The fluorescent signals were recorded 4 times during the run using Molecular Devices AnalystGT (Molecular Devices, Sunnyvale, Calif. USA). Any compounds showing 30% activation of the enzyme were rescreened in a dose-dependent manner (0-30 μM, duplicate) to identify potential hits.\nBased on preliminary results with compound AG1, a variety of compounds of interest were prepared and assessed in G6PD enzyme activation assays, according to the methods described herein."}},
  "data": [
    {"smiles": "SCCNCCc1c[nH]c2ccccc12", "note": "[AG1, 2-[2-(1H-indol-3-yl)ethylamino]ethanethiol]", "values": [
      {"measurement": "rescue of viability", "setting": "[1]; Mediterranean G6PD expression knocked down by siRNA", "value": "did not rescue"},
      {"measurement": "improvement of viability", "setting": "[1]; stress conditions", "value": 22, "unit": "%"},
      {"measurement": "effect on dimerization or activity", "setting": "[2]", "value": "no effect"},
      {"measurement": "effect on dimerization or activity", "setting": "[3]", "value": "no effect"},
      {"measurement": "stability of G6PD", "setting": "[4]", "value": "stabilized"},
      {"measurement": "stability of Canton G6PD", "setting": "[5]", "value": "increased"},
      {"measurement": "increase of the activity of Canton G6PD enzyme", "setting": "Canton G6PD; 100 μM of AG1", "value": 70, "unit": "%"},
      {"measurement": "kcat (turnover number)", "setting": "Canton G6PD; Canton G6PD in presence of AG1", "value": "296 ± 1", "unit": "S^−1"},
      {"measurement": "EC50", "setting": "Canton G6PD; read-out: EC50 of activation of Canton G6PD", "value": "~3", "unit": "µM"}
    ]}
  ]
}
